Data as given in paper PMC12040169 (PLOS Biology, 2025).

assay: in vitro; details: human, hela cells

Structure (SMILES)	viability at 28.5 h, 10 µM [%]
CC(C)CN(/C=N/c1nc(OC(=O)N(c2ccccc2)c2ccccc2)nc2c1ncn2C1CC(O)C(CO)O1)CC(C)C (stereo not shown) [CBK201170]	93
Nc1ncnc2c1ccn2[C@@H]1O[C@H](CO)[C@H](O)C1O (stereo partly shown) [CBK201176]	0

same assay, conditions: human, hela cells, % viability

Structure (SMILES)	viability at 28.5 h, 10 µM [%]
O=C(Cn1cnnn1)NC1CCCC1 [CBK200372]	94.9
CCN1CCN(C(=O)c2cnccn2)CC1 [CBK200373]	81.6
CCN1CCN(C(=O)c2csnn2)CC1 [CBK200376]	92.5
CCN1CCN(C(=O)c2cc(C)[nH]n2)CC1 [CBK200377]	108
CCN1CCN(C(=O)COc2cccnc2)CC1 [CBK200378]	94.8
Cc1ccc(NC(=O)c2cncnc2)c(C)n1 [CBK200380]	81.1
Cc1noc(C)c1NC(=O)CN1CCOCC1 [CBK200381]	103
Cc1ccc(NC(=O)Cc2ccncc2)c(C)n1 [CBK200385]	90
Cc1ccc(NC(=O)CCc2cccnc2)c(C)n1 [CBK200386]	101
Cc1ccc(NC(=O)CN(C)C)c(C)n1 [CBK200388]	99.6
Cc1noc(C)c1NC(=O)c1ccncc1 [CBK200389]	89.9
Cc1noc(C)c1NC(=O)CCc1cccnc1 [CBK200392]	99.6
Cc1cc(C(=O)Nc2c(C)noc2C)n[nH]1 [CBK200395]	87.4
Cc1noc(C)c1NC(=O)c1cscn1 [CBK200397]	95.2
Cc1ncccc1C(=O)N1CCC(F)CC1 [CBK200398]	85.4
COCCC(=O)N1CCC(F)CC1 [CBK200399]	99.1
O=C(c1cnccc1C(F)(F)F)N1CCc2ccccc21 [CBK200401]	112
O=C(c1ccc2ncccc2c1)N1CCc2ccccc21 [CBK200403]	81.8
O=C(c1ccc2ccccc2n1)N1CCc2ccccc21 [CBK200404]	94
Cn1cc(C(=O)N2CCc3ccccc32)c2ccccc21 [CBK200407]	80.6
O=C(c1csnn1)N1CCc2ccccc21 [CBK200408]	86
O=C(c1ccno1)N1CCc2ccccc21 [CBK200409]	104
CCOc1ccsc1C(=O)N1CCc2ccccc21 [CBK200410]	100

Structure (SMILES)	viability at 28.5 h, 10 µM [%]
O=C(CCN1CCCCC1)N1CCc2ccccc21 [CBK200413]	91.1
COC(=O)N1CCN(c2ccccc2)CC1 [CBK200414]	85.5
C[C@@H]1CN(C(=O)OCCc2cccs2)C[C@H](C)O1 [CBK200416]	95.5
Cc1ncsc1CCOC(=O)N1C[C@@H](C)O[C@@H](C)C1 [CBK200418]	96.3
CN1CCN(CCOC(=O)N2CCN(C(c3ccccc3)c3ccccc3)CC2)CC1 [CBK200419]	89
Nc1ncc(-c2cccc(C(=O)O)c2)nc1-c1ccc(O)cc1 [CBK200420]	107
CN1CCN(C(=O)c2ccc(-c3cnc(N)c(-c4ccc(O)cc4)n3)cc2F)CC1 [CBK200421]	90.6
Nc1ncc(-c2ccc(C(=O)N3CCOCC3)cc2)nc1-c1ccsc1 [CBK200422]	110
O=C(O)c1cccc(NS(=O)(=O)c2cc3ccccc3o2)c1 [CBK200423]	97.4
CN1CCC(N(C)C(=O)c2cc3oc(-c4ccccc4)nc3c(=O)n2C)C1 (stereo not shown) [CBK200424T]	93.9
CN1CCN(c2ccc(NC(=O)c3cc4oc(-c5ccccc5)nc4c(=O)n3C)cc2)CC1 [CBK200425]	94.9
CNc1ncnc2c1ncn2[C@@H]1O[C@H](CO)[C@@H](O)[C@H]1O [CBK200610]	101
Cn1c(=O)c2c(ncn2CC(O)CO)n(C)c1=O (stereo not shown) [CBK200637]	98.5
CN(C)CC/C=C1/c2ccccc2COc2ccc(CC(=O)O)cc21 [CBK200992]	92.4
Nc1nccc2c1ncn2[C@H]1C[C@@H](O)[C@@H](CO)O1 [CBK201157]	97.1
O=c1cnn([C@H]2C[C@@H](O)[C@@H](CO)O2)c(=O)[nH]1 [CBK201162]	93.4
O=[N+]([O-])c1ccc2c(ccn2C2CC(O)C(CO)O2)c1 (stereo not shown) [CBK201163]	95
COC1C(O)C(CO)OC1n1ccc(=O)[nH]c1=O (stereo not shown) [CBK201166]	93.6
OC[C@H]1O[C@@H](n2cnc3c(Cl)ncnc32)C[C@H]1O [CBK201167]	99.6
COC1C(O)C(CO)OC1n1cc(F)c(=S)[nH]c1=O (stereo not shown) [CBK201168]	96
Nc1nc2c(ncn2[C@@H]2O[C@H](CO)[C@H](O)C2O)c(=O)[nH]1 (stereo partly shown) [CBK201173]	96
CN(C)/C=N/c1ncc2ncn(C3CC(O)C(CO)O3)c2n1 (stereo not shown) [CBK201175]	90.8
COc1nc(N)nc2c1ccn2C1CC(O)C(CO)O1 (stereo not shown) [CBK201177]	98.6

Structure (SMILES)	viability at 28.5 h, 10 µM [%]
CC#Cc1cn([C@H]2C[C@@H](O)[C@@H](CO)O2)c(=O)[nH]c1=O [CBK201182]	104
Cc1cc(C)c(Oc2nc(=O)n([C@H]3C[C@@H](O)[C@@H](CO)O3)cc2F)c(C)c1 [CBK201184]	96.4
Cc1nn([C@H]2C[C@@H](O)[C@@H](CO)O2)c(=O)[nH]c1=O [CBK201185]	97.3
O=c1[nH]cnc2c1ncn2[C@@H]1O[C@H](CO)[C@H](O)C1O (stereo partly shown) [CBK201186]	98.3
CCNc1nc2c(ncn2C2CC(O)C(CO)O2)c(=O)[nH]1 (stereo not shown) [CBK201189]	99.6
Nc1nc2c([C@H]3C[C@@H](O)[C@@H](CO)O3)c[nH]c2c(=O)[nH]1 [CBK201194]	102
Nc1cc2c(ncn2[C@@H]2C[C@@H](O)[C@@H](CO)O2)c(=O)[nH]1 [CBK201196]	88.1
Cc1cn([C@H]2C[C@@H](O)[C@@H](CI)O2)c(=O)[nH]c1=O [CBK201197]	96.9
CC(C)CNc1nc2c(ncn2[C@H]2C[C@@H](O)[C@@H](CO)O2)c(=O)[nH]1 [CBK201198]	94.8
Cc1cn(C2CC(O)C(CO)O2)c(=O)nc1SCCC#N (stereo not shown) [CBK201201]	97.5
CC(C)C(=O)Nc1nc2c([nH]c(=O)n2[C@H]2C[C@@H](O)[C@@H](CO)O2)c(=O)[nH]1 [CBK201202]	98.4
N#Cc1cn([C@@H]2O[C@H](CO)[C@H](O)C2O)c2ncnc(N)c12 (stereo partly shown) [CBK201204]	18
C#Cc1cn([C@H]2C[C@@H](O)[C@@H](CO)O2)c(=O)[nH]c1=O [CBK201207]	87.8
O=c1ccn([C@@H]2O[C@H](CO)[C@H](O)C2O)c(=S)[nH]1 (stereo partly shown) [CBK201210]	91.8
Nc1nc2c(ncn2[C@H]2C[C@@H](O)[C@@H](CO)O2)c(=S)[nH]1 [CBK201213]	59.3
Cn1c(N)nc2c(ncn2[C@H]2C[C@@H](O)[C@@H](CO)O2)c1=O [CBK201215]	105
Nc1nc2nn([C@H]3C[C@@H](O)[C@@H](CO)O3)cc2c(=O)[nH]1 [CBK201218]	90.3
Nc1ncnc2c1nc(N)n2[C@H]1C[C@@H](O)[C@@H](CO)O1 [CBK201222]	101
Nc1nc2c(cnn2[C@H]2C[C@@H](O)[C@@H](CO)O2)c(=O)[nH]1 [CBK201223]	101
Nc1ncnc2c1nnn2[C@@H]1O[C@H](CO)[C@H](O)C1O (stereo partly shown) [CBK201228]	30
O=[N+]([O-])c1ccn(C2CC(O)C(CO)O2)c1 (stereo not shown) [CBK201229]	83.7
O=C(/C=C/c1cn(C2OC(CO)C(O)C2O)c(=O)[nH]c1=O)NCCCCCCNC(=O)C(F)(F)F (stereo not shown) [CBK201231]	99.1
Cc1cn([C@H]2C[C@@H](O)[C@@H](CO)O2)c(=O)nc1-n1cncn1 [CBK201235]	82.9

Structure (SMILES)	viability at 28.5 h, 10 µM [%]
O=c1[nH]c(=O)n([C@H]2C[C@@H](O)[C@@H](CO)O2)cc1CCO [CBK201239]	99.6
Nc1ncnc2c1nc(Br)n2[C@H]1C[C@@H](O)[C@@H](CO)O1 [CBK201240]	103
COC1C(O)C(CO)OC1n1cnc2c(N)nc(N)nc21 (stereo not shown) [CBK201241]	95.4
O=c1[nH]cnc2c([C@@H]3O[C@H](CO)[C@H](O)C3O)n[nH]c12 (stereo partly shown) [CBK201242]	98.1
OC[C@H]1O[C@@H](n2cnc3cncnc32)C[C@H]1O [CBK201243]	113
COC(=O)/C=C/c1cn(C2CC(O)C(CO)O2)c(=O)[nH]c1=O (stereo not shown) [CBK201244]	105
O=c1[nH]cnc2c1cnn2[C@@H]1O[C@H](CO)[C@H](O)C1O (stereo partly shown) [CBK201245]	95.8
Nc1ncc([C@H]2C[C@@H](O)[C@@H](CO)O2)c(=O)[nH]1 [CBK201246]	79.8
Nc1nc2c(nc(OCc3ccccc3)n2C2OC(CO)C(O)C2O)c(=O)[nH]1 (stereo not shown) [CBK201247]	80.6
O=C(Nc1ncnc2c1[nH]c(=O)n2C1CC(O)C(CO)O1)c1ccccc1 (stereo not shown) [CBK201250]	94.6
COC1C(O)C(CO)OC1n1cc(C)c(=O)[nH]c1=O (stereo not shown) [CBK201251]	103
Nc1ncnc2c1nc1n2[C@H]2C[C@@H](O)[C@@H](C1)O2 [CBK201254]	102
Nc1ncnc2c1ccn2[C@H]1C[C@@H](O)[C@@H](CO)O1 [CBK201258]	95.5
Nc1ncnc2c1nc1n2[C@H]2C[C@@H](O)[C@H](O2)C1=O [CBK201259]	98.2
N#CCCSc1ccn(C2CC(O)C(CO)O2)c(=O)n1 (stereo not shown) [CBK201261]	97.9
Nc1cccc(-c2cn([C@H]3C[C@@H](O)[C@@H](CO)O3)c(=O)[nH]c2=O)c1 [CBK201262]	94.4
OC[C@H]1OCC[C@H]1O [CBK201263]	113
OC[C@H]1O[C@@H](n2cnc3c(Cl)ncnc32)C(O)[C@H]1O (stereo partly shown) [CBK201266]	99.1
Cc1cn([C@@H]2O[C@H](CO)[C@H](O)C2O)c(=O)nc1N (stereo partly shown) [CBK201268]	105
Nc1nc2c([nH]c(=O)n2[C@H]2C[C@@H](O)[C@@H](CO)O2)c(=O)[nH]1 [CBK201269]	94.7
